Experimental data from patent US9849130B2 (KamTek, Inc., priority 2014, dated 2017).
In brackets after ≈: the same amount, converted by molar mass. Read-outs that look alike come from different tables or passages of the source.

Legend:
CD strain VPI 1063 = assay: MIC of CFM formulations following incubation with feces (supernatants); assay type: cell-based, Clostridium difficile; conditions: for MIC: Clostridioides difficile
CD = assay: Animal model testing of CDI (Syrian Golden Hamster model), survival; assay type: in vivo
[1] = cited from earlier work
[2] = in vivo; cited from earlier work
[3] = cited from earlier work; remark: listed apart in the source
[4] = CFM formulations suitable for in vivo dosing (Table 18)
Bacteroides Strains = assay: MIC by microdilution in Brucella broth against Bacteroides strains; assay type: cell-based, Bacteroides spp.
[5] = B. eggerthii HM210, read-out: MIC
[6] = B. fragilis HM709, read-out: MIC
[7] = B. fragilis HM710, read-out: MIC
[8] = B. fragilis HM714, read-out: MIC
[9] = B. stercoris HM1036, read-out: MIC
[10] = Bacteroides, B. spp. HM23, read-out: MIC

In the case of `CN[C@H](CC(C)C)C(=O)N[C@H]1C(=O)N[C@@H](CC(N)=O)C(=O)N[C@H]2C(=O)N[C@H]3C(=O)N[C@H](C(=O)N[C@H](C(=O)O)c4cc(O)cc(O)c4-c4cc3ccc4O)[C@H](O)c3ccc(c(Cl)c3)Oc3cc2cc(c3O[C@@H]2O[C@H](CO)[C@@H](O)[C@H](O)[C@H]2O[C@H]2C[C@](C)(N)[C@H](O)[C@H](C)O2)Oc2ccc(cc2Cl)[C@H]1O` [VAN, vancomycin], the MIC (CD strain VPI 1063; VPI1063, 2 h, read-out: MIC in Centrifuged BHI control) is reported as 0.5 µg/mL, the MIC (CD strain VPI 1063; VPI1063, 2 h, read-out: MIC in Fecal extracts) is reported as 1 µg/mL and the MIC (CD strain VPI 1063; VPI1063, read-out: MIC in BHI control) is reported as 0.5 µg/mL. The “increase in MIC after incubation in feces” value (CD strain VPI 1063; Table 21) was 2 fold and the “survival by day 14” value (CD; drug alone at the same dosage as in the combination (VAN 5 mg/kg twice a day)) was 0%.

In the case of `CC(C)N=c1cc2n(-c3ccc(Cl)cc3)c3ccccc3nc-2cc1Nc1ccc(Cl)cc1` [CFM, 3-(p-chloroanilino)-10-(p-chlorophenyl)-2,10-dihydro-2-iso-propyliminophenazine], the half-life ([1]; after a single dose of 100 mg) is listed as “about 10 days”, the half-life ([1]; following long-term high dosage of 300 mg) is listed as “about 70 days” and the orally absorbed bioavailability ([1]; in vivo, po) is listed as 45-65%. The “gastrointestinal conditions including abdominal and epigastric pain, nausea, vomiting and/or diarrhea” value [2] was 40-50 % of patients, the “icothyosis and dryness of skin” value [2] was 8-28 % of patients and the “ocular conditions including conjunctival pigmentation, itching and dryness” value [2] was “approximately 1 % of patients”. The rash and pruritus [2] was 1-5 % of patients, the skin pigmentation [2] was 75-100 % of patients and the solubility in water [3] was 0.225 µg/mL (≈ 0.475 µM). The “protection at higher dosages” value (CD; 20 and 40 mg/kg versus 10 mg/kg) was “did not increase the protection”, the “protection during 28 days of observation” value (CD; CFM dosage of 10 mg/kg) was 30% and the “survival for 27 days” value (CD; CFM in aqueous suspension of CMC at 10 mg/kg/once a day) was 30%. For the same compound, the “protection on animal survival by day 9 after infection” value (CD; CFM in aqueous suspension of CMC, oral, 10 mg/kg/day, 5 days) was 50%, the “survival by day 7” value (CD; drug alone at the same dosage as in the combination (Lamprene 10 mg/kg twice a day)) was 0% and the solubility ([4]; Cremophor-EL (100%, liquid), organic solvent or mixture, in Cremophor-EL, liquid, 100%) was 8000 µg/mL (≈ 16900 µM). It also gave a solubility ([4]; Cremophor-EL (100%, liquid), organic solvent or mixture, in Cremophor-EL, liquid, 100%, if kept for long time (3-5 days)) of 10000 µg/mL (≈ 21100 µM), a solubility ([4]; Phosal 50 PG (phospholipids), oil or lipid, in Phosal 50 PG (phospholipids), thick oily liquid) of 10000 µg/mL (≈ 21100 µM) and a solubility ([4]; Phosal 53 MCT (phospholipids), oil or lipid, in Phosal 53 MCT (phospholipids), thick oily liquid) of 10000 µg/mL (≈ 21100 µM). The solubility ([4]; Tween 80 (100%, liquid), organic solvent or mixture, in Tween 80, liquid, 100%) was 12000 µg/mL (≈ 25300 µM), the solubility ([4]; Tween 80 (100%, liquid), organic solvent or mixture, in Tween 80, liquid, 100%, if kept for long time (3-5 days)) was 15000 µg/mL (≈ 31700 µM) and the Stability ([4]; in Cremophor-EL, liquid, 100%, remains stable following dilution in water/medium/saline/PBS) was “Stable, and remains”. The Stability ([4]; in Olive oil, canola oil, and coconut oil, diluted only in oils, forms emulsions in water) was “Stable, should be”, the Stability ([4]; in Phosal 50 PG (phospholipids), forms emulsion in water) was “Stable, clear, thick” and the Stability ([4]; in Phosal 53 MCT (phospholipids), forms emulsion in water) was “Stable, clear, thick”. For the same compound, the Stability ([4]; in Tween 80, liquid, 100%, stable after dilution in water or culture medium, PBS, precipitates slowly in saline) was “Stable undiluted,”, the solubility ([4]; olive oil, canola oil, and coconut oil (100%, liquid), oil or lipid, in Olive oil, canola oil, and coconut oil, liquid, 100%) was 5000 µg/mL (≈ 10600 µM) and the solubility ([4]; polyethylene glycol (PEG-300, PEG-400), 100%, liquid, organic solvent or mixture, in Polyethylene glycol (PEG-300, PEG-400)) was 5000 µg/mL (≈ 10600 µM). For the same compound, the MIC (Bacteroides Strains; B. caccae HM728, read-out: MIC) was 1 µg/mL (≈ 2.11 µM), the MIC (Bacteroides Strains; [5]) was 2 µg/mL (≈ 4.22 µM) and the MIC (Bacteroides Strains; [6]) was 4 µg/mL (≈ 8.45 µM). The MIC (Bacteroides Strains; [7]) was 2 µg/mL (≈ 4.22 µM), the MIC (Bacteroides Strains; [8]) was 2 µg/mL (≈ 4.22 µM) and the MIC (Bacteroides Strains; B. ovatus HM222, read-out: MIC) was 0.25 µg/mL (≈ 0.528 µM). It also gave an MIC (Bacteroides Strains; [9]) of 0.5 µg/mL (≈ 1.06 µM), an MIC (Bacteroides Strains; Bacteroides, B. spp. HM18) of 4 µg/mL (≈ 8.45 µM) and an MIC (Bacteroides Strains; Bacteroides, B. spp. HM19) of 1 µg/mL (≈ 2.11 µM). It also gave an MIC (Bacteroides Strains; [10]) of 2 µg/mL (≈ 4.22 µM), an MIC (Bacteroides Strains; Bacteroides, B. spp. HM27) of 1 µg/mL (≈ 2.11 µM) and an MIC (Bacteroides Strains; Bacteroides, B. spp. HM58) of 1 µg/mL (≈ 2.11 µM).

Compound `CCN=c1cc2n(-c3cccc(C(F)(F)F)c3)c3ccccc3nc-2cc1Nc1cccc(C(F)(F)F)c1` [B4129] has an MIC (Bacteroides Strains; B. caccae HM728) of 2 µg/mL (≈ 3.8 µM), an MIC (Bacteroides Strains; B. eggerthii HM210) of 2 µg/mL (≈ 3.8 µM) and an MIC (Bacteroides Strains; B. fragilis HM709) of 2 µg/mL (≈ 3.8 µM). It also gave an MIC (Bacteroides Strains; B. fragilis HM710) of 2 µg/mL (≈ 3.8 µM), an MIC (Bacteroides Strains; B. fragilis HM714) of 4 µg/mL (≈ 7.6 µM) and an MIC (Bacteroides Strains; B. ovatus HM222) of 0.25 µg/mL (≈ 0.475 µM). It also gave an MIC (Bacteroides Strains; B. spp. HM18) of 16 µg/mL (≈ 30.4 µM), an MIC (Bacteroides Strains; B. spp. HM19) of 0.5 µg/mL (≈ 0.95 µM) and an MIC (Bacteroides Strains; B. spp. HM20) of 2 µg/mL (≈ 3.8 µM). For the same compound, the MIC (Bacteroides Strains; B. spp. HM22) was 2 µg/mL (≈ 3.8 µM), the MIC (Bacteroides Strains; B. spp. HM23) was 16 µg/mL (≈ 30.4 µM) and the MIC (Bacteroides Strains; B. spp. HM27) was 1 µg/mL (≈ 1.9 µM). It also gave an MIC (Bacteroides Strains; B. spp. HM28) of 2 µg/mL (≈ 3.8 µM), an MIC (Bacteroides Strains; B. spp. HM58) of 2 µg/mL (≈ 3.8 µM) and an MIC (Bacteroides Strains; B. stercoris HM1036) of 0.25 µg/mL (≈ 0.475 µM).

With `CCN=c1cc2n(-c3ccc(Cl)cc3)c3ccccc3nc-2cc1Nc1ccc(Cl)cc1` [B746] the MIC (Bacteroides Strains; B. caccae HM728) was 1 µg/mL (≈ 2.18 µM), the MIC (Bacteroides Strains; B. eggerthii HM210) was 2 µg/mL (≈ 4.35 µM) and the MIC (Bacteroides Strains; B. fragilis HM709) was 4 µg/mL (≈ 8.71 µM). For the same compound, the MIC (Bacteroides Strains; B. fragilis HM710) was 2 µg/mL (≈ 4.35 µM), the MIC (Bacteroides Strains; B. fragilis HM714) was 4 µg/mL (≈ 8.71 µM) and the MIC (Bacteroides Strains; B. ovatus HM222) was 0.25 µg/mL (≈ 0.544 µM). It also gave an MIC (Bacteroides Strains; B. spp. HM18) of 1 µg/mL (≈ 2.18 µM), an MIC (Bacteroides Strains; B. spp. HM19) of 2 µg/mL (≈ 4.35 µM) and an MIC (Bacteroides Strains; B. spp. HM20) of 1 µg/mL (≈ 2.18 µM). For the same compound, the MIC (Bacteroides Strains; B. spp. HM22) was 1 µg/mL (≈ 2.18 µM), the MIC (Bacteroides Strains; B. spp. HM23) was 2 µg/mL (≈ 4.35 µM) and the MIC (Bacteroides Strains; B. spp. HM27) was 1 µg/mL (≈ 2.18 µM). It also gave an MIC (Bacteroides Strains; B. spp. HM28) of 2 µg/mL (≈ 4.35 µM), an MIC (Bacteroides Strains; B. spp. HM58) of 1 µg/mL (≈ 2.18 µM) and an MIC (Bacteroides Strains; B. stercoris HM1036) of 1 µg/mL (≈ 2.18 µM).

With `Cc1ncc([N+](=O)[O-])n1CCO` [MET, metronidazole] the “MIC in Fecal extracts” value (CD strain VPI 1063; 128 μg/ml in 20% feces, 2 hours at 37° C., centrifuged, supernatants filter sterilized and tested, CD strain VPI 1063) was >32 µg/mL, the MIC (CD strain VPI 1063; VPI1063, 128 μg/ml in 20% feces, 2 hours at 37° C., centrifuged, supernatants filter sterilized and tested, CD strain VPI 1063, read-out: MIC in Fecal extracts) was > 32 µg/mL and the MIC (CD strain VPI 1063; VPI1063, serial dilutions in BHI, without centrifugation, CD strain VPI 1063, read-out: MIC in BHI control) was 0.062 µg/mL. The MIC (Bacteroides Strains; B. caccae HM728, read-out: MIC) was 0.25 µg/mL (≈ 1.46 µM), the MIC (Bacteroides Strains; [5]) was 0.5 µg/mL (≈ 2.92 µM) and the MIC (Bacteroides Strains; [6]) was 1 µg/mL (≈ 5.84 µM). The MIC (Bacteroides Strains; [7]) was 0.5 µg/mL (≈ 2.92 µM), the MIC (Bacteroides Strains; [8]) was 1 µg/mL (≈ 5.84 µM) and the MIC (Bacteroides Strains; B. ovatus HM222, read-out: MIC) was 0.5 µg/mL (≈ 2.92 µM). It also gave an MIC (Bacteroides Strains; [9]) of 0.25 µg/mL (≈ 1.46 µM), an MIC (Bacteroides Strains; Bacteroides, B. spp. HM18) of 4 µg/mL (≈ 23.4 µM) and an MIC (Bacteroides Strains; Bacteroides, B. spp. HM19) of 1 µg/mL (≈ 5.84 µM). For the same compound, the MIC (Bacteroides Strains; Bacteroides, B. spp. HM22) was 0.5 µg/mL (≈ 2.92 µM), the MIC (Bacteroides Strains; [10]) was 0.25 µg/mL (≈ 1.46 µM) and the MIC (Bacteroides Strains; Bacteroides, B. spp. HM27) was 0.5 µg/mL (≈ 2.92 µM). It also gave an MIC (Bacteroides Strains; Bacteroides, B. spp. HM28) of 2 µg/mL (≈ 11.7 µM) and an MIC (Bacteroides Strains; Bacteroides, B. spp. HM58) of 2 µg/mL (≈ 11.7 µM).
